From publication PMC12311725, “Identification of Ginsentide-like Peptides from Cacao Beans with Oxidative Stress Protection” (ACS Omega, 2025)
Where a SMILES comes first, the peptide text is derived from it. Bridges are numbered along the chain shown (N, C = ends).

Tests used:
[1] = Peptide stability assay with pepsin (RP-HPLC); format: in vitro ADME; conditions: isolated enzyme pepsin, pepsin 50:1 (w/v) in 0.2 M HCl, 37 °C, peptide 0.1 M [sic], RP-HPLC peak area as % of initial, read-out: structural integrity retained (percentage of peptide remaining) after incubation with pepsin
Method: (§1) Stability studies were conducted using purified cocotide tC1 (0.1 M) and S-alkylated tC1 (iodoacetamido) under specific buffer conditions. Pepsin stability was assessed by incubating the samples in a mixture of pepsin at a ratio of 50:1 (w/v) in 0.2 M HCl at 37 °C. For trypsin stability, the samples were treated with trypsin in 0.1 M ammonium bicarbonate buffer (pH 8) at 37 °C. Analysis of stability assays involved collecting samples at various time points, which were then analyzed by reversed-phase high-performance liquid chromatography (RP-HPLC) using a linear gradient of mobile phase A (0.05% trifluoroacetic acid in water) and mobile phase B (0.05% trifluoroacetic acid in acetonitrile) on an Aeris Peptide XB-C18 column (Phenomenex). The stability results were expressed as a percentage of the initial concentration and determined by the peak area of the HPLC profile.
(§2) 7 Proteolytic stability assays of cocotide tC1. Cocotide tC1 was incubated with either pepsin or trypsin at 37 °C for up to 6 h. S-alkylated tC1 was used as the control. At different time points, samples of cocotide tC1 and the control were quantified using reversed-phase high pressure liquid chromatography (RP-HPLC). The relative peak areas of the RP-HPLC profiles were used to quantify the percentage of peptides remaining after incubation with pepsin or trypsin.

[2] = Peptide stability assay with trypsin (RP-HPLC); format: in vitro ADME; conditions: isolated enzyme trypsin, trypsin in 0.1 M ammonium bicarbonate buffer pH 8, 37 °C, peptide 0.1 M [sic], RP-HPLC peak area as % of initial, read-out: structural integrity retained (percentage of peptide remaining) after incubation with trypsin
Method: as §1, §2

[3] = Iron-binding assay (High-Select Fe-NTA spin column, RP-HPLC of flowthroughs); conditions: 1 h at room temperature, six water washes, elution
Method: The High-Select Fe-NTA Phosphopeptide Enrichment Kit (Thermo Fisher Scientific, USA) was used to investigate the iron-binding abilities of cocotide tC1. Briefly, cocotide tC1 was suspended in the binding buffer provided. The spin column was first equilibrated by adding 200 μL of the binding buffer and then centrifuged at 1000 × g for 30 s (Thermo Fisher Scientific, USA). The suspended peptide sample was added to the spin column and incubated for 1 h at room temperature. The sample was then centrifuged again at 1000 × g for 30 s, and the flowthrough was collected. The spin column was then washed six times with 100 μL of deionized water. Each time, the sample was centrifuged at 1000 × g for 30 s before collecting the flowthrough. Finally, 100 μL of the elution buffer provided was added, and the sample was centrifuged at 1000 × g for another 30 s before collecting the final eluted flowthrough. All eight flowthroughs were analyzed by using RP-HPLC.

For `CC[C@H](C)[C@@H]1NC(=O)CNC(=O)[C@H](CCSC)NC(=O)[C@@H]2CCCN2C(=O)[C@H](Cc2ccc(O)cc2)NC(=O)[C@H](CC(C)C)NC(=O)[C@@H]2CSSC[C@@H]3NC(=O)[C@H](Cc4ccccc4)NC(=O)CNC(=O)CNC(=O)[C@H](C)NC(=O)[C@H](CO)NC(=O)[C@H](CC(C)C)NC(=O)[C@@H](N)CSSC[C@@H]4NC(=O)[C@H](CSSC[C@H](NC1=O)C(=O)N[C@@H](Cc1ccc(O)cc1)C(=O)NCC(=O)N[C@@H](CO)C(=O)NCC(=O)N[C@H](C(=O)O)CSSC[C@H](NC(=O)[C@H](CC(N)=O)NC(=O)CNC4=O)C(=O)NCC(=O)N2)NC(=O)[C@H](CC(=O)O)NC(=O)[C@H](CCSC)NC(=O)[C@@H]1CCCN1C(=O)[C@H](CC(N)=O)NC(=O)[C@H](Cc1ccccc1)NC(=O)[C@H](CCSC)NC3=O` [cocotide tC1] (H-CLSAGGFCMFNPMDCCGNCGCLYPMGICYGSGC-OH; disulfide 1-16, 8-21, 15-28, 19-33; N-terminus and C-terminus assumed), the remaining at 6 h [1] was > 80%, the remaining at 6 h [2] was > 80% and the “interaction with Fe-NTA agarose resin” value [3] was “interacts with the Fe-NTA agarose resin”.
